Laboratory results reported in patent US5508310A, “Immunopotentiatory agents and physiologically acceptable salts thereof” (Burroughs Wellcome Co., priority 1992, dated 1996).
Values joined by “and” are separate entries in the source; they are usually repeats but may differ in a detail not shown here. Identical values can stand only once.

Experiments:
[1] = system: mononuclear cell fraction of blood from healthy donors immunised with tetanus toxoid; type: cell-based, human (healthy donors)
[2] = system: mouse colon adenocarcinoma 38 (MCA38); experiment: Antitumour activity: outgrowth of subcutaneously implanted mouse colon adenocarcinoma 38 (MCA38) in C57BL/6 mice; type: in vivo, mouse (C57BL/6); conditions: for Tumour weight on day 24 after tumour implantation (individual mice): intraperitoneally, every alternate day, 9 doses, individual animal values; for Mean % red. (tumour weight) / Median % red. (tumour weight): vs controls (group A); for Mean tumour weight on day 24: controls mean 0.635; for Median tumour weight on day 24: controls median 0.636
Procedure: The activity of the tucaresol was evaluated against the outgrowth of subcutaneously implanted mouse colon adenocarcinoma 38 (MCA38) in female C57BL/6 mice, using the following protocol:
Day 0 Fifteen, female and 16 male C57BL/6 mice each im-
planted subcutaneously with one 2 mm cube of tumour.
Mice randomized and divided into three groups -
Group A, 5 females and 5 males, Group B, 5 females
and 5 males, Group C, 5 females and 6 males.
Day 5 Test groups B and C each dosed with 589C80 (1 mg or
to 0.2 mg per mouse dissolved in 0.2 ml PBS,
intraperitoneally) once every alternate day (total of 9
doses). Control mice (group A) given PBS alone.
All mice killed, tumours excised and weighed. Mean and
median tumour weight in test group compared with
Tucaresol was dissolved in PBS by dropwise addition of 1M KOH to pH 10.0 followed by dropwise addition of conc. HCL to return pH to neutral.
Dosing schedule where drug was given on alternate days was chosen in order to extend the dosing period over 14 rather than 7 days. By so doing tumours were exposed to the drug from day 13 right up until […] i.e. 2 days before the experiment was terminated.

[3] = system: Pneumocystis carinii; conditions: AIDS patients; Wofsy 1986; cited from earlier work

Compound: O=CCCc1ccccc1 [Compound 5, 3-Phenylproponion-aldhyde]
- IC50 Ratio with 4-Hydroxyphenylacetaldehyde [1]: 40

Compound: O=Cc1c(O)cccc1OCc1ccc(C(=O)O)cc1 [Tucaresol]
- Tumour weight on day 24 after tumour implantation (individual mice) ([2]; Group B, 1.0 mg/mouse): 0.740 grammes and 0.695 grammes and 0.358 grammes and 0.303 grammes and 0.298 grammes and 0.090 grammes and 0.079 grammes and 0.038 grammes and 0.022 grammes
- Mean % red. (tumour weight) ([2]; Group B, 1.0 mg/mouse): 54.2%
- Median % red. (tumour weight) ([2]; Group B, 1.0 mg/mouse): 53.15%
- Mean tumour weight on day 24 ([2]; Group B, 1.0 mg/mouse, S.D. 0.272): 0.291 grammes
- Median tumour weight on day 24 ([2]; Group B, 1.0 mg/mouse): 0.298 grammes
- Tumour weight on day 24 after tumour implantation (individual mice) ([2]; Group C, 0.2 mg/mouse): 0.802 grammes and 0.272 grammes and 0.230 grammes and 0.197 grammes and 0.181 grammes and 0.126 grammes and 0.085 grammes and 0.029 grammes and 0.019 grammes and 0.006 grammes
- Mean % red. (tumour weight) ([2]; Group C, 0.2 mg/mouse): 70.4%
- Median % red. (tumour weight) ([2]; Group C, 0.2 mg/mouse): 80.19%
- Mean tumour weight on day 24 ([2]; Group C, 0.2 mg/mouse, S.D. 0.222): 0.188 grammes
- Median tumour weight on day 24 ([2]; Group C, 0.2 mg/mouse): 0.126 grammes
- Inhibition of outgrowth of subcutaneously implanted MCA38 ([2]; syngeneic C57BL/6 mice, result in words): inhibited the outgrowth

Compound: N=C(N)c1ccc(OCCCCCOc2ccc(C(=N)N)cc2)cc1 [pentamidine]
- Effectiveness in Pneumocystis carinii pneumonia [3]: 50-70%
- Incidence of adverse reactions [3]: around 50%

Compound: trimethoprim-sulphamethoxazole
- Effectiveness in Pneumocystis carinii pneumonia [3]: 50-70%
